Target: ribosome A site
Assay: not given
Details: binding the A site, accepting the growing peptide chain, and falling off the ribosome; cited from earlier work
In the case of `COc1ccc(C[C@H](N)C(=O)N[C@H]2[C@@H](O)[C@H](n3cnc4c(N(C)C)ncnc43)O[C@@H]2CO)cc1` [puromycin], the Kd is listed as 100 µM.

Tested on: ribosome (eukaryotic peptidyl transferase / translocation) in reticulocyte lysate translation extract
Assay: RNA-peptide fusion formation (35S Met template labeling) with the long myc template in reticulocyte lysate translation extract, effect of inhibitors
Format: biochemical, rabbit
Details: long myc template (LP154), inhibitor concentration not given, 60 min
Source text: To confirm that the template labeling by ^35 S Met was a consequence of translation, and more specifically resulted from the peptidyl transferase activity of the ribosome, the effect of various inhibitors on the labeling reaction was examined. The specific inhibitors of eukaryotic peptidyl transferase, anisomycin, gougerotin, and sparsomycin (Vazquez, Inhibitors of Protein Biosynthesis (Springer-Verlag, N.Y.), pp. 312 (1979)), as well as the translocation inhibitors cycloheximide and emetine (Vazquez, Inhibitors of Protein Biosynthesis (Springer-Verlag, N.Y.), pp. 312 (1979)) all decreased RNA-peptide fusion formation by ~95% using the long myc template and a reticulocyte lysate translation extract.
Reticulocyte Translation Reactions. Translation reactions were performed either with purchased kits (Novagen, Madison, Wis.) or using extract prepared according to published protocols (Jackson and Hunt, Meth. Enzymol. 96:50 (1983)). Reticulocyte-rich blood was obtained from Pel-Freez Biologicals (Rogers, […].). In both cases, the reaction conditions were those recommended for use with Red Nova Lysate (Novagen). Reactions consisted of 100 mM KCl, 0.5 mM MgOAc, 2 mM DTT, 20 mM HEPES pH 7.6, 8 mM creatine phosphate, 25 µM in each amino acid (with the exception of methionine if ^35 S Met was used), and 40% v/v of lysate. Incubation was at 30° C. for 1 hour. Template concentrations depended on the experiment but generally ranged from 50 nM to 1 μM with the exception of 43-P (FIG. 6H) which was 4 μM.
With `COc1ccc(C[C@H]2NC[C@H](O)[C@H]2OC(C)=O)cc1` [anisomycin] the “decrease of RNA-peptide fusion formation” value was ~ 95%.
For `C[C@@H]1C[C@@H]([C@H](O)CC2CC(=O)NC(=O)C2)C(=O)[C@@H](C)C1` [cycloheximide], the “decrease of RNA-peptide fusion formation” value was ~ 95%.
For `CC[C@H]1CN2CCc3cc(OC)c(OC)cc3[C@@H]2C[C@@H]1C[C@H]1NCCc2cc(OC)c(OC)cc21` [emetine], the “decrease of RNA-peptide fusion formation” value was ~ 95%.
In the case of `CNCC(=O)NC(CO)C(=O)NC1C(C(N)=O)OC(n2ccc(N)nc2=O)C(O)C1O` (stereo not drawn) [gougerotin], the “decrease of RNA-peptide fusion formation” value is reported as ~ 95%.
With `CSC[S@+]([O-])C[C@H](CO)NC(=O)/C=C/c1c(C)[nH]c(=O)[nH]c1=O` [sparsomycin] the “decrease of RNA-peptide fusion formation” value was ~ 95%.
